Experiment: Stability of the compounds and of the liposomes (statement in words)
Format: physicochemical
Settings: compound itself

stability of the compound	Compound
very stable	CCCCCCCCCCCCCCCCN(CCCCCCCCCCCCCCCC)C(=O)COCCOCCOCCNC(=O)C(N)Cc1cnc[nH]1 (centres unmarked) [Example 3]
very stable	CCCCCCCCCCCCCCCCN(CCCCCCCCCCCCCCCC)CCOCCOC(=O)C(N)Cc1cnc[nH]1 (centres unmarked) [Example 1]

Reference: patent US9795566B2, “Imidazole compound and liposome containing same” (FUJIFILM Corporation, priority 2014, dated 2017)
